Patent publication US9179694B2, “Method and composition for enhancing milk production and milk component concentrations” (PURINA ANIMAL NUTRITION LLC, priority 2003, dated 2015)
Marks after values point to notes of the source that are not given here.

Test: Lactose content of produced milk in sorbitol feeding trials
Type: in vivo, Holstein cows
Conditions: for Lactose in Produced Milk: Pre-Partum Trial #1 (75/0/0 g/day in wk −3..−1/+1..+4/+5..+8)
Method: To determine the weight percent lactose, wet basis, in a liquid sample, the weight of the liquid sample is first determined. The actual weight of lactose in the liquid sample may then be determined using analysis kit number 176-303, that is available from Boehringer-Mannheim of Indianapolis, Ind. in accordance with the procedural instructions included with analysis kit number 176-303. The weight percent lactose, wet basis, in the liquid sample is then calculated by dividing the actual weight of lactose in the liquid sample by the actual weight of the liquid sample. Each cow of each of the six different trials (Control Trial #1, Control Trial #2, Pre-Partum Trial #1, Pre-Partum Trial #2, Pre/Post Trial #1, and Pre/Post Trial #2) was milked three times daily and the weight of produced milk by each cow was recorded at each milking. The milk from each cow was sampled once per week (⅓ of the sample volume from each of the three milkings occurring on the weekly milk sampling day) and was analyzed for true protein, total fat, lactose, and total solids, as detailed in the property determination and characterization techniques presented above. Additionally, samples of blood were periodically obtained from each cow during the four trials (Control Trial 2, Pre-Partum Trial #2, Pre/Post Trial #1, and Pre/Post Trial #2) encompassed in Example Two and were analyzed for non-esterified fatty acid (NEFA) content as detailed in the property determination and characterization techniques presented above. No NEFA analysis was conducted on the cows employed in Control Trial #1 or Pre-Partum Trial #1 that are the subject of Example One. Example One includes Control Trial #1 and Pre-Partum Trial #1. Both primiparious cows and multiparious cows were included in Control Trial #1 and Pre-Partum Trial #1. Five primiparious cows and fifteen multiparious cows were included in Control Trial #1; likewise, five primiparious cows and fifteen multiparious cows were included in Pre-Partum Trial #1. All cows included in Control Trial #1 and Pre-Partum Trial #1 were Holsteins. Example Two includes Control Trial #2, Pre-Partum Trial #2, Pre/Post Trial #1, and Pre/Post Trial #2. Only multiparious, Holstein cows were included in Control Trial #2, Pre-Partum Trial #1, Pre/Post Trial #1, and Pre/Post Trial #2. Eighteen multiparious cows were included in both Control Trial #2 and Pre-Partum Trial #2, while sixteen multiparious cows were included in Pre/Post Trial #1 and seventeen multiparious cows were included in Pre/Post Trial #2.

Compound: OC[C@@H](O)[C@@H](O)[C@H](O)[C@@H](O)CO [sorbitol]
- Lactose in Produced Milk (multiparious cows, weeks +1 through +8): 4.77 wt %
- Lactose in Produced Milk (primiparious cows, weeks +1 through +8): 4.98 wt %
- increase in lactose concentration in the produced milk (Pre-Partum Trial #1 (75 g/day wk −3..−1 only) versus Control Trial #1, primiparious cows, weeks +1 through +8): 5.1%
- Lactose Content of Produced Milk (Pre-Partum Trial #2 (75/0/100 g/day in wk −3..−1/+1..+4/+5..+8), multiparious cows, week +1): 4.42 weight %
- Lactose Content of Produced Milk (Pre-Partum Trial #2 (75/0/100 g/day in wk −3..−1/+1..+4/+5..+8), multiparious cows, week +2): 4.69^a weight %
- Lactose Content of Produced Milk (Pre-Partum Trial #2 (75/0/100 g/day in wk −3..−1/+1..+4/+5..+8), multiparious cows, week +3): 4.74^a weight %
- Lactose Content of Produced Milk (Pre-Partum Trial #2 (75/0/100 g/day in wk −3..−1/+1..+4/+5..+8), multiparious cows, week +4): 4.75^a weight %
- Lactose Content of Produced Milk (Pre-Partum Trial #2 (75/0/100 g/day in wk −3..−1/+1..+4/+5..+8), multiparious cows, week +5): 4.74^a weight %
- Lactose Content of Produced Milk (Pre-Partum Trial #2 (75/0/100 g/day in wk −3..−1/+1..+4/+5..+8), multiparious cows, week +6): 4.75^a weight %
- Lactose Content of Produced Milk (Pre-Partum Trial #2 (75/0/100 g/day in wk −3..−1/+1..+4/+5..+8), multiparious cows, week +7): 4.77^a weight %
- Lactose Content of Produced Milk (Pre-Partum Trial #2 (75/0/100 g/day in wk −3..−1/+1..+4/+5..+8), multiparious cows, week +8): 4.76^a weight %
- Lactose Content of Produced Milk (Pre-Partum Trial #2 (75/0/100 g/day in wk −3..−1/+1..+4/+5..+8), multiparious cows, weeks +1 through +4): 4.65 weight %
- Lactose Content of Produced Milk (Pre-Partum Trial #2 (75/0/100 g/day in wk −3..−1/+1..+4/+5..+8), multiparious cows, weeks +5 through +8): 4.76^a weight %
- Lactose Content of Produced Milk (Pre/Post Trial #1 (150/125/100 g/day in wk −3..−1/+1..+4/+5..+8), multiparious cows, week +1): 4.55 weight %
- Lactose Content of Produced Milk (Pre/Post Trial #1 (150/125/100 g/day in wk −3..−1/+1..+4/+5..+8), multiparious cows, week +1, two-trial comparison with Control Trial #2 (Table 25)): 4.55 weight %
- Lactose Content of Produced Milk (Pre/Post Trial #1 (150/125/100 g/day in wk −3..−1/+1..+4/+5..+8), multiparious cows, week +2): 4.79^ab weight %
- Lactose Content of Produced Milk (Pre/Post Trial #1 (150/125/100 g/day in wk −3..−1/+1..+4/+5..+8), multiparious cows, week +2, two-trial comparison with Control Trial #2 (Table 25)): 4.79 weight %
- Lactose Content of Produced Milk (Pre/Post Trial #1 (150/125/100 g/day in wk −3..−1/+1..+4/+5..+8), multiparious cows, week +3): 4.87^ab weight %
- Lactose Content of Produced Milk (Pre/Post Trial #1 (150/125/100 g/day in wk −3..−1/+1..+4/+5..+8), multiparious cows, week +3, two-trial comparison with Control Trial #2 (Table 25)): 4.87 weight %
- Lactose Content of Produced Milk (Pre/Post Trial #1 (150/125/100 g/day in wk −3..−1/+1..+4/+5..+8), multiparious cows, week +4): 4.90^b weight %
- Lactose Content of Produced Milk (Pre/Post Trial #1 (150/125/100 g/day in wk −3..−1/+1..+4/+5..+8), multiparious cows, week +4, two-trial comparison with Control Trial #2 (Table 25)): 4.90 weight %
- Lactose Content of Produced Milk (Pre/Post Trial #1 (150/125/100 g/day in wk −3..−1/+1..+4/+5..+8), multiparious cows, week +5): 4.93^c weight %
- Lactose Content of Produced Milk (Pre/Post Trial #1 (150/125/100 g/day in wk −3..−1/+1..+4/+5..+8), multiparious cows, week +5, two-trial comparison with Control Trial #2 (Table 25)): 4.93 weight %
- Lactose Content of Produced Milk (Pre/Post Trial #1 (150/125/100 g/day in wk −3..−1/+1..+4/+5..+8), multiparious cows, week +6): 4.90^ab weight %
- Lactose Content of Produced Milk (Pre/Post Trial #1 (150/125/100 g/day in wk −3..−1/+1..+4/+5..+8), multiparious cows, week +6, two-trial comparison with Control Trial #2 (Table 25)): 4.90 weight %
- Lactose Content of Produced Milk (Pre/Post Trial #1 (150/125/100 g/day in wk −3..−1/+1..+4/+5..+8), multiparious cows, week +7): 4.90^ab weight %
- Lactose Content of Produced Milk (Pre/Post Trial #1 (150/125/100 g/day in wk −3..−1/+1..+4/+5..+8), multiparious cows, week +7, two-trial comparison with Control Trial #2 (Table 25)): 4.90 weight %
- Lactose Content of Produced Milk (Pre/Post Trial #1 (150/125/100 g/day in wk −3..−1/+1..+4/+5..+8), multiparious cows, week +8): 4.84^ab weight %
- Lactose Content of Produced Milk (Pre/Post Trial #1 (150/125/100 g/day in wk −3..−1/+1..+4/+5..+8), multiparious cows, week +8, two-trial comparison with Control Trial #2 (Table 25)): 4.84 weight %
- Lactose Content of Produced Milk (Pre/Post Trial #1 (150/125/100 g/day in wk −3..−1/+1..+4/+5..+8), multiparious cows, weeks +1 through +4): 4.78 weight %
- Lactose Content of Produced Milk (Pre/Post Trial #1 (150/125/100 g/day in wk −3..−1/+1..+4/+5..+8), multiparious cows, weeks +1 through +4, two-trial comparison with Control Trial #2 (Table 25)): 4.78 weight %
- Lactose Content of Produced Milk (Pre/Post Trial #1 (150/125/100 g/day in wk −3..−1/+1..+4/+5..+8), multiparious cows, weeks +1 through +8): 4.83^ab weight %
- Lactose Content of Produced Milk (Pre/Post Trial #1 (150/125/100 g/day in wk −3..−1/+1..+4/+5..+8), multiparious cows, weeks +1 through +8, two-trial comparison with Control Trial #2 (Table 25)): 4.83 weight %
- Lactose Content of Produced Milk (Pre/Post Trial #1 (150/125/100 g/day in wk −3..−1/+1..+4/+5..+8), multiparious cows, weeks +5 through +8): 4.89^ab weight %
- Lactose Content of Produced Milk (Pre/Post Trial #1 (150/125/100 g/day in wk −3..−1/+1..+4/+5..+8), multiparious cows, weeks +5 through +8, two-trial comparison with Control Trial #2 (Table 25)): 4.89 weight %
- increase in lactose concentration in milk (Pre/Post Trial #1 (150/125/100 g/day) versus Control Trial #2, multiparious cows, weeks +1 through +4 (Table 25)): more than 2.5%
- increase in lactose concentration in milk (Pre/Post Trial #1 (150/125/100 g/day) versus Control Trial #2, multiparious cows, weeks +1 through +8 (Table 25)): 1.9%
- increase in lactose concentration in milk (Pre/Post Trial #1 (150/125/100 g/day) versus Control Trial #2, multiparious cows, weeks +5 through +8 (Table 25)): more than 2.5%
- Lactose Content of Produced Milk (Pre/Post Trial #2 (75/75/100 g/day in wk −3..−1/+1..+4/+5..+8), multiparious cows, week +1): 4.47 weight %
- Lactose Content of Produced Milk (Pre/Post Trial #2 (75/75/100 g/day in wk −3..−1/+1..+4/+5..+8), multiparious cows, week +2): 4.84^b weight %
- Lactose Content of Produced Milk (Pre/Post Trial #2 (75/75/100 g/day in wk −3..−1/+1..+4/+5..+8), multiparious cows, week +3): 4.92^b weight %
- Lactose Content of Produced Milk (Pre/Post Trial #2 (75/75/100 g/day in wk −3..−1/+1..+4/+5..+8), multiparious cows, week +4): 4.90^b weight %
- Lactose Content of Produced Milk (Pre/Post Trial #2 (75/75/100 g/day in wk −3..−1/+1..+4/+5..+8), multiparious cows, week +5): 4.90^bc weight %
- Lactose Content of Produced Milk (Pre/Post Trial #2 (75/75/100 g/day in wk −3..−1/+1..+4/+5..+8), multiparious cows, week +6): 4.92^b weight %
- Lactose Content of Produced Milk (Pre/Post Trial #2 (75/75/100 g/day in wk −3..−1/+1..+4/+5..+8), multiparious cows, week +7): 4.96^b weight %
- Lactose Content of Produced Milk (Pre/Post Trial #2 (75/75/100 g/day in wk −3..−1/+1..+4/+5..+8), multiparious cows, week +8): 4.93^b weight %
- Lactose Content of Produced Milk (Pre/Post Trial #2 (75/75/100 g/day in wk −3..−1/+1..+4/+5..+8), multiparious cows, weeks +1 through +4): 4.78 weight %
- Lactose Content of Produced Milk (Pre/Post Trial #2 (75/75/100 g/day in wk −3..−1/+1..+4/+5..+8), multiparious cows, weeks +1 through +8): 4.85^b weight %
- greater lactose concentration in milk (Pre/Post Trial #2 (75/75/100 g/day) versus Pre-Partum Trial #2 (75/0/100 g/day), multiparious cows, weeks +1 through +8): 3.0%
- increase in lactose concentration in milk (average of means of Pre-Partum Trial #2, Pre/Post Trial #1 and Pre/Post Trial #2 versus Control Trial #2, multiparious cows, weeks +1 through +4): 1.7%
- increase in lactose concentration in milk (average of means of Pre-Partum Trial #2, Pre/Post Trial #1 and Pre/Post Trial #2 versus Control Trial #2, multiparious cows, weeks +1 through +8): 1.6%
